Measurements published in PubChem BioAssay AID252 (DTP/NCI, 2004).
Where “and” joins values, the source holds several entries; their conditions need not be identical. Equal values may be shown once. Toxic doses and inconclusive results are not listed.

Test system: BDF1 mice, intracerebral L1210 leukemia, survival T/C
Assay: NCI In Vivo Anticancer Drug Screen. Data for tumor model L1210 Leukemia (intracerebral) in B6D2F1 (BDF1) mice
Conditions: higher = longer survival
How it was run: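 Readout is the T/C ratio: survival of compound-treated animals over that of vehicle-treated controls, in mice bearing transplantable tumour.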

[1] = endpoint: mean survival time, dose: 16.0 mg/kg/injection, schedule: Q01DX Z (ip), vehicle: carboxymethylcellulose (CMC)
[2] = endpoint: mean survival time, dose: 31.0 mg/kg/injection, schedule: Q01DX Z (ip), vehicle: carboxymethylcellulose (CMC)
[3] = endpoint: mean survival time, dose: 37.5 mg/kg/injection, schedule: Q01DX001 (ip), vehicle: carboxymethylcellulose (CMC)
[4] = endpoint: mean survival time, dose: 62.0 mg/kg/injection, schedule: Q01DX Z (ip), vehicle: carboxymethylcellulose (CMC)
[5] = endpoint: mean survival time, dose: 75.0 mg/kg/injection, schedule: Q01DX001 (ip), vehicle: carboxymethylcellulose (CMC)
[6] = endpoint: mean survival time, dose: 18.0 mg/kg/injection, schedule: Q01DX001 (ip), vehicle: carboxymethylcellulose (CMC)
[7] = endpoint: mean survival time, dose: 25.0 mg/kg/injection, schedule: Q01DX001 (ip), vehicle: other

Compound: O=NN(CCCl)C(=O)NC1CCCCC1
- T/C (endpoint: mean survival time, dose: 1.0 mg/kg/injection, schedule: Q01DX001 (ip), vehicle: saline): 101 % of control
- T/C (endpoint: mean survival time, dose: 1.0 mg/kg/injection, schedule: Q01DX001 (oral), vehicle: saline): 91 % of control
- T/C (endpoint: mean survival time, dose: 1.0 mg/kg/injection, schedule: Q01DX Z (ip), vehicle: carboxymethylcellulose (CMC)): 103 % of control and 116 % of control
- T/C (endpoint: mean survival time, dose: 2.0 mg/kg/injection, schedule: Q01DX009 (ip), vehicle: carboxymethylcellulose (CMC)): 106 % of control
- T/C (endpoint: mean survival time, dose: 2.0 mg/kg/injection, schedule: Q01DX Z (ip), vehicle: carboxymethylcellulose (CMC)): 104 % of control and 108 % of control
- T/C (endpoint: mean survival time, dose: 4.0 mg/kg/injection, schedule: Q01DX Z (ip), vehicle: carboxymethylcellulose (CMC)): 118 % of control
- T/C (endpoint: mean survival time, dose: 5.0 mg/kg/injection, schedule: Q01DX001 (ip), vehicle: carboxymethylcellulose (CMC)): 115 % of control
- T/C (endpoint: mean survival time, dose: 5.1 mg/kg/injection, schedule: Q01DX001 (ip), vehicle: carboxymethylcellulose (CMC)): 111 % of control and 120 % of control
- T/C (endpoint: mean survival time, dose: 8.0 mg/kg/injection, schedule: Q01DX009 (ip), vehicle: carboxymethylcellulose (CMC)): 212 % of control
- T/C (endpoint: mean survival time, dose: 8.0 mg/kg/injection, schedule: Q01DX Z (ip), vehicle: carboxymethylcellulose (CMC)): 202 % of control
- T/C (endpoint: mean survival time, dose: 10.0 mg/kg/injection, schedule: Q01DX001 (ip), vehicle: saline): 113 % of control
- T/C (endpoint: mean survival time, dose: 10.0 mg/kg/injection, schedule: Q01DX001 (oral), vehicle: saline): 115 % of control
- T/C (endpoint: mean survival time, dose: 12.0 mg/kg/injection, schedule: Q01DX Z (ip), vehicle: carboxymethylcellulose (CMC)): 213 % of control
- T/C (endpoint: mean survival time, dose: 12.5 mg/kg/injection, schedule: Q01DX001 (ip), vehicle: carboxymethylcellulose (CMC)): 166 % of control and 176 % of control
- T/C (endpoint: mean survival time, dose: 14.0 mg/kg/injection, schedule: Q01DX001 (ip), vehicle: carboxymethylcellulose (CMC)): 114 % of control and 122 % of control
- T/C (endpoint: mean survival time, dose: 16.0 mg/kg/injection, schedule: Q01DX009 (ip), vehicle: carboxymethylcellulose (CMC)): 302 % of control
- T/C [1]: 152 % of control and 162 % of control
- T/C (endpoint: mean survival time, dose: 20.0 mg/kg/injection, schedule: Q01DX001 (ip), vehicle: carboxymethylcellulose (CMC)): 292 % of control
- T/C (endpoint: mean survival time, dose: 24.25 mg/kg/injection, schedule: Q01DX001 (oral), vehicle: carboxymethylcellulose (CMC)): 266 % of control and 288 % of control and 339 % of control
- T/C (endpoint: mean survival time, dose: 25.0 mg/kg/injection, schedule: Q01DX001 (ip), vehicle: saline): 231 % of control
- T/C (endpoint: mean survival time, dose: 25.0 mg/kg/injection, schedule: Q01DX001 (oral), vehicle: saline): 243 % of control
- T/C (endpoint: mean survival time, dose: 30.0 mg/kg/injection, schedule: Q01DX001 (ip), vehicle: carboxymethylcellulose (CMC)): 240 % of control and 321 % of control
- T/C (endpoint: mean survival time, dose: 30.0 mg/kg/injection, schedule: Q01DX001 (ip), vehicle: saline): 322 % of control
- T/C [2]: 152 % of control
- T/C (endpoint: mean survival time, dose: 32.0 mg/kg/injection, schedule: Q01DX001 (ip), vehicle: carboxymethylcellulose (CMC)): 165 % of control and 246 % of control
- T/C (endpoint: mean survival time, dose: 33.0 mg/kg/injection, schedule: Q01DX001 (ip), vehicle: carboxymethylcellulose (CMC)): 459 % of control
- T/C (endpoint: mean survival time, dose: 36.0 mg/kg/injection, schedule: Q01DX001 (ip), vehicle: carboxymethylcellulose (CMC)): 277 % of control
- T/C [3]: 269 % of control
- T/C (endpoint: mean survival time, dose: 40.0 mg/kg/injection, schedule: Q01DX001 (ip), vehicle: saline): 240 % of control
- T/C (endpoint: mean survival time, dose: 43.0 mg/kg/injection, schedule: Q01DX001 (ip), vehicle: carboxymethylcellulose (CMC)): 481 % of control and 731 % of control
- T/C (endpoint: mean survival time, dose: 45.0 mg/kg/injection, schedule: Q01DX001 (ip), vehicle: carboxymethylcellulose (CMC)): 189 % of control
- T/C (endpoint: mean survival time, dose: 48.0 mg/kg/injection, schedule: Q01DX001 (ip), vehicle: carboxymethylcellulose (CMC)): 274 % of control and 306 % of control
- T/C (endpoint: mean survival time, dose: 48.5 mg/kg/injection, schedule: Q01DX001 (oral), vehicle: carboxymethylcellulose (CMC)): 278 % of control and 337 % of control and 420 % of control
- T/C (endpoint: mean survival time, dose: 50.0 mg/kg/injection, schedule: Q01DX001 (ip), vehicle: saline): 218 % of control and 277 % of control
- T/C (endpoint: mean survival time, dose: 50.0 mg/kg/injection, schedule: Q01DX001 (oral), vehicle: saline): 255 % of control
- T/C (endpoint: mean survival time, dose: 55.0 mg/kg/injection, schedule: Q01DX001 (ip), vehicle: carboxymethylcellulose (CMC)): 473 % of control
- T/C (endpoint: mean survival time, dose: 60.0 mg/kg/injection, schedule: Q01DX001 (ip), vehicle: carboxymethylcellulose (CMC)): 359 % of control and 414 % of control and 463 % of control
- T/C (endpoint: mean survival time, dose: 60.0 mg/kg/injection, schedule: Q01DX001 (ip), vehicle: saline): 227 % of control
- T/C [4]: 91 % of control and 94 % of control
- T/C (endpoint: mean survival time, dose: 70.0 mg/kg/injection, schedule: Q01DX001 (ip), vehicle: carboxymethylcellulose (CMC)): 267 % of control
- T/C (endpoint: mean survival time, dose: 70.0 mg/kg/injection, schedule: Q01DX001 (ip), vehicle: saline): 109 % of control
- T/C (endpoint: mean survival time, dose: 72.0 mg/kg/injection, schedule: Q01DX001 (ip), vehicle: carboxymethylcellulose (CMC)): 208 % of control and 284 % of control and 293 % of control
- T/C [5]: 294 % of control
- T/C (endpoint: mean survival time, dose: 75.0 mg/kg/injection, schedule: Q01DX001 (ip), vehicle: saline): 276 % of control
- T/C (endpoint: mean survival time, dose: 75.0 mg/kg/injection, schedule: Q01DX001 (oral), vehicle: saline): 208 % of control
- T/C (endpoint: mean survival time, dose: 80.0 mg/kg/injection, schedule: Q01DX001 (ip), vehicle: carboxymethylcellulose (CMC)): 184 % of control
- T/C (endpoint: mean survival time, dose: 86.0 mg/kg/injection, schedule: Q01DX001 (ip), vehicle: carboxymethylcellulose (CMC)): 184 % of control and 211 % of control
- T/C (endpoint: mean survival time, dose: 97.0 mg/kg/injection, schedule: Q01DX001 (oral), vehicle: carboxymethylcellulose (CMC)): 120 % of control and 122 % of control
- T/C (endpoint: mean survival time, dose: 100.0 mg/kg/injection, schedule: Q01DX001 (ip), vehicle: carboxymethylcellulose (CMC)): 103 % of control
- T/C (endpoint: mean survival time, dose: 100.0 mg/kg/injection, schedule: Q01DX001 (ip), vehicle: saline): 89 % of control
- T/C (endpoint: mean survival time, dose: 100.0 mg/kg/injection, schedule: Q01DX001 (oral), vehicle: saline): 102 % of control

Compound: CCCCCCCCCCCCCCCC(=O)Nc1ccn(C2OC(CO)C(O)C2O)c(=O)n1 (centres undefined)
- T/C (endpoint: median survival time, dose: 12.5 mg/kg/injection, schedule: Q01DX009 (ip), vehicle: distilled water + Tween-80 + alcohol): 214 % of control
- T/C (endpoint: median survival time, dose: 25.0 mg/kg/injection, schedule: Q01DX009 (ip), vehicle: distilled water + Tween-80 + alcohol): 269 % of control

Compound: CCOC(N)=O
- T/C (endpoint: mean survival time, dose: 1074.0 mg/kg/injection, schedule: Q01DX001 (ip), vehicle: saline): 104 % of control
- T/C (endpoint: mean survival time, dose: 1601.0 mg/kg/injection, schedule: Q01DX001 (ip), vehicle: saline): 106 % of control

Compound: O=NN(CCCl)C(=O)Nc1ccc(SCC(=O)O)cc1
- T/C (endpoint: mean survival time, dose: 12.0 mg/kg/injection, schedule: Q01DX001 (ip), vehicle: carboxymethylcellulose (CMC)): 95 % of control
- T/C [6]: 96 % of control
- T/C (endpoint: mean survival time, dose: 26.0 mg/kg/injection, schedule: Q01DX001 (ip), vehicle: carboxymethylcellulose (CMC)): 88 % of control

Compound: O=NN(CCF)C(=O)NC1CC2CCC1C2 (centres undefined)
- T/C (endpoint: mean survival time, dose: 5.7 mg/kg/injection, schedule: Q01DX001 (ip), vehicle: other): 106 % of control
- T/C (endpoint: mean survival time, dose: 11.5 mg/kg/injection, schedule: Q01DX001 (ip), vehicle: other): 115 % of control
- T/C (endpoint: mean survival time, dose: 16.5 mg/kg/injection, schedule: Q01DX001 (ip), vehicle: other): 162 % of control
- T/C (endpoint: mean survival time, dose: 23.0 mg/kg/injection, schedule: Q01DX001 (ip), vehicle: other): 161 % of control
- T/C [7]: 252 % of control
- T/C (endpoint: mean survival time, dose: 37.0 mg/kg/injection, schedule: Q01DX001 (ip), vehicle: other): 274 % of control
- T/C (endpoint: mean survival time, dose: 37.5 mg/kg/injection, schedule: Q01DX001 (ip), vehicle: other): 321 % of control
- T/C (endpoint: mean survival time, dose: 46.0 mg/kg/injection, schedule: Q01DX001 (ip), vehicle: other): 309 % of control
- T/C (endpoint: mean survival time, dose: 70.0 mg/kg/injection, schedule: Q01DX001 (ip), vehicle: other): 312 % of control
- T/C (endpoint: mean survival time, dose: 126.0 mg/kg/injection, schedule: Q01DX001 (ip), vehicle: other): 312 % of control

Compound: CCn1cnc2c(SC(C)C)ncnc21
- T/C [1]: 100 % of control
- T/C [2]: 109 % of control
- T/C [4]: 110 % of control

Compound: O=NN(CCCl)C(=O)NC1C=CCCC1 (centres undefined)
- T/C (endpoint: mean survival time, dose: 15.0 mg/kg/injection, schedule: Q01DX001 (ip), vehicle: other): 110 % of control
- T/C (endpoint: mean survival time, dose: 20.0 mg/kg/injection, schedule: Q01DX001 (ip), vehicle: other): 118 % of control
- T/C [7]: 122 % of control
- T/C (endpoint: mean survival time, dose: 30.0 mg/kg/injection, schedule: Q01DX001 (ip), vehicle: other): 118 % of control
- T/C (endpoint: mean survival time, dose: 35.0 mg/kg/injection, schedule: Q01DX001 (ip), vehicle: other): 123 % of control

Compound: CN(N=O)C(=O)Nc1ccc(NC(=O)N(C)N=O)cc1
- T/C (endpoint: mean survival time, dose: 4.5 mg/kg/injection, schedule: Q01DX001 (ip), vehicle: carboxymethylcellulose (CMC)): 93 % of control
- T/C (endpoint: mean survival time, dose: 9.0 mg/kg/injection, schedule: Q01DX001 (ip), vehicle: carboxymethylcellulose (CMC)): 98 % of control
- T/C [6]: 98 % of control

Compound: N#Cc1ccc(NC(=O)N(CCCl)N=O)cc1
- T/C (endpoint: mean survival time, dose: 9.37 mg/kg/injection, schedule: Q01DX001 (ip), vehicle: carboxymethylcellulose (CMC)): 95 % of control
- T/C (endpoint: mean survival time, dose: 18.75 mg/kg/injection, schedule: Q01DX001 (ip), vehicle: carboxymethylcellulose (CMC)): 91 % of control
- T/C [3]: 104 % of control
- T/C [5]: 102 % of control
- T/C (endpoint: mean survival time, dose: 150.0 mg/kg/injection, schedule: Q01DX001 (ip), vehicle: carboxymethylcellulose (CMC)): 90 % of control
